The values that follow come from patent publication US20140336187A1, “METHODS FOR TREATING LEISHMANIASIS” (HOWARD UNIVERSITY, priority 2011, published 2014).

The subject of data set [1] is L. donovani promastigotes. As to the kind of experiment: Dose and time-dependent inhibitory effect on L. donovani promastigotes (2, 4, 6, 24 hours exposure). Type of data set: cell-based, Leishmania donovani. As for the experimental part:
The Leishmanicidal properties of fifteen naphthoquinone compounds (FIG. 1) on L. donovani promastigotes proliferation were assessed by the resazurin cell viability assay. Promastigotes from axenic culture were harvested during the exponential phase of growth (at least 5-day old culture), incubated at a concentration of 2×10^5 cells/200 μl with and without dilutions of compounds in 96-well microtitre plates. Dilutions of compounds covering 0.03 μM to 44 μM were prepared. […] 20 μl Alamar Blue (12.5 mg resazurin dissolved in 100 ml distilled water (Sigma #R7017)) (Mikes and Steverding, 2000) were added to each well and plates were incubated for another 2 hrs. […] Decrease in fluorescence (inhibition), were expressed as percentage of the fluorescence of control cultures and were plotted against the concentrations of compounds. The IC50 values were calculated from the sigmoidal inhibition curves.
A time and dose-dependent inhibitory effect of all 15 imido-substituted naphthoquinone compounds was assessed on their activity on promastigotes of L. donovani. Promastigotes were plated in 96-well plates and incubated in different concentrations of each compound (0.03 to 44 μM), incubated for two hours and viabilities assayed by the resazurin assay. A two hour exposure was assessed by calculation of IC50 values of each compound. Values are means±S.E. (Standard Error).
A time and dose-dependent inhibitory effect of all 15 imido-substituted naphthoquinone compounds was assessed on their activity on promastigotes of L. donovani. Promastigotes were plated in 96-well plates and incubated in different concentrations of each compound (0.03 to 44 μM), incubated for four hours and cell viabilities assayed by the resazurin assay. A four hour exposure was assessed by calculation of IC50 values of each compound. Values are means±S.E. (Standard Error).
Promastigotes were plated in 96-well plates and incubated in different concentrations of each compound (0.03 to 44 μM), incubated for six hours and cell viabilities assayed by the resazurin assay. A six hour exposure was assessed by calculation of IC50 values of each compound. Values are means±S.E. (Standard error).
A time and dose-dependent inhibitory effect of all 15 imido-substituted naphthoquinone compounds was assessed on their activity on promastigotes of L. donovani. Promastigotes were plated in 96-well plates and incubated in different concentrations of each compound (0.03 to 44 μM), incubated for twenty four hours and cell viabilities assayed by the resazurin assay. A twenty four hour exposure was assessed by calculation of IC50 values of each compound. Values are means±S.E. (Standard Error).

[2] abbreviates: Leishmania donovani, 2 h, read-out: Antileishmanial Activity IC50 (μM) 2 hours.
Where [3] appears, read: Leishmania donovani, 6 h, read-out: Antileishmanial Activity IC50 (μM) 6 hours.
Setting [4] is: Leishmania donovani, 24 h, read-out: Antileishmanial Activity IC50 (μM) 24 hours.
Setting [5] is: Leishmania donovani, 4 h, read-out: Antileishmanial Activity IC50 (μM) 4 hours.

Molecules are shown by their SMILES. Read-outs that look alike come from different tables or passages of the source.

As for `C[C@@H]1[C@H](O)[C@@H](C)/C=C/C=C/C=C/C=C/C=C/C=C/C=C/[C@H](O[C@@H]2O[C@H](C)[C@@H](O)[C@H](N)[C@@H]2O)C[C@@H]2O[C@](O)(C[C@@H](O)C[C@@H](O)[C@H](O)CC[C@@H](O)C[C@@H](O)CC(=O)O[C@H]1C)C[C@H](O)[C@H]2C(=O)O` [Am. B., Amphotericin B, reference compound], the half-inhibitory concentration (IC50) in data set [1] (promastigotes, 6 hours exposure, means ± S.E., read-out: Antileishmanial Activity IC50 (μM) 6 hours) stood at 52 ± 12.2 µM; in data set [1] (promastigotes, 24 hours exposure, means ± S.E., read-out: Antileishmanial Activity IC50 (μM) 24 hours), 4.1 ± 0.4 µM; in data set [1] (read-out: Antileishmanial Activity IC50 (μM) 2 hours, promastigotes, 2 hours exposure, means ± S.E.) it was 3.09 ± 2 µM; in data set [1] (read-out: Antileishmanial Activity IC50 (μM) 4 hours, promastigotes, 4 hours exposure, means ± S.E.) it was 4.49 ± 0.3 µM.

Regarding `CCCC(=O)N(C(=O)CCC)C1=C(Cl)C(=O)c2ccccc2C1=O` [IMDNQ15], the values for the IC50 in data set [1] (setting [2]), in data set [1] (setting [3]) and in data set [1] (setting [4]) were 8.6 ± 0.01 µM, 116.35 ± 0.07 µM and 3.96 µM, respectively.

Regarding `NC1=C(Br)C(=O)c2ccccc2C1=O` [IMD8, 2-Amino-3-bromo-1,4-naphthoquinone], the IC50 in data set [1] (setting [2]) amounted to 0.021 ± 0.001 µM; in data set [1] (setting [5]), 64.2 ± 11.8 µM; in data set [1] (setting [3]), 23100 µM; in data set [1] (setting [4]), 12 ± 0.8 µM.

The compound `O=C1C(Cl)=C(N(C(=O)c2cccc(Cl)c2)C(=O)c2cccc(Cl)c2)C(=O)c2ccccc21` [IMDNQ4, 3-Chloro-N-(3-chlorobenzoyl)-N-(3-chloro-1,4-dioxo-1,4-dihydronaphthalen-2-yl)-benzamide] returned a melting point of 258 to 260 °C. In addition, in data set [1] (setting [2]), the IC50 amounted to 3.52 ± 3.6 µM. For the same compound, in data set [1] (setting [5]), the IC50 is 21.5 ± 9.6 µM. In addition, the IC50 in data set [1] (setting [3]) amounted to 4.11 ± 6.3 µM. Moreover, the IC50 in data set [1] (setting [4]) came to 3.96 ± 1.3 µM.

One may read the IC50 as the concentration that gives 50% inhibition. Broadly, the melting point is the temperature of the solid-liquid transition.
